Test results reported in patent publication US7511065B2, “Mixed lineage kinase modulators” (Eli Lilly and Company, priority 2002, dated 2009).

Molecular target: T1, MLK-7 (Homo sapiens, UniProt Q9NYL2)
T1 construct: GST; His tag; made in house; host or cells: Sf9 insect cells (baculovirus, pVL1392)
Experiment: In vitro assay of purified MLK-7 kinase activity (33P transfer from ATP to myelin basic protein)
Type: biochemical
Conditions: recombinant GST-tagged MLK-7 at 1 nm, 30 uM ATP, 5 uM MBP substrate, 2 hours room temperature; read-out: MLK7 IC50
Text: In Vitro Assay of Purified Mixed Lineage Kinase 7 (MLK-7) Activity:
Briefly, recombinant glutathione-s-transferase (GST) tagged MLK-7 is expressed in Sf9 cells using a recombinant baculovirus created using baculovirus transfer vector pVL1392 modified to contain a GST and histidine tag. The recombinant protein is purified over a glutathione column and subsequently used for in vitro kinase assays with myelin basic protein (MBP) as the substrate for phosphorylation. The in vitro kinase reaction is run with recombinant MLK-7 at 1 nm and various concentrations of test compound in a reaction mixture containing 2 mM DTT, 30 uM ATP, 5 mM MgCl2, 5 uM MBP, 4% DMSO, 5 uCi 33P in 44 mM HEPES, (pH 7.4). The reaction is carried out for 2 hours at room temperature and then stopped by the addition of phosphoric acid to 5.5%. The phosphorylated MBP is collected on a filter and radioactivity associated with the membrane measured using a scintillation counter. Inhibitors are identified by the ability to reduce the transfer of radioactive phosphate from ATP to MBP compared to controls run without test compound.
IC50 values, defined as the concentration of test compound required to decrease the transfer of radioactive phosphate from ATP to MBP by 50%, are then determined. Ki values (which refers to the dissociation constant of an enzyme-antagonist complex and serves as an index of ligand binding) for each respective test compound can also be calculated by application of the Cheng-Prusoff equation as described in Cheng et al., Relationship Between The Inhibition Constant (Ki) and The Concentration of Inhibitor Which Causes 50% Inhibition (IC50) of an Enzymatic Reaction, Biochem. Pharmacol., 22: […]; (1973).
Representative compounds of the present invention have an IC50 in the MLK-7 kinase assay of ≦10,000 nM Table I (see infra.) provides IC50 data from the afore mentioned MLK-7 kinase assay for a representative sample of the exemplified compounds of the present invention.

| Molecule | IC50 [nM] |
| --- | --- |
| 2-[4-(2-Pyridin-2-yl-5,6-dihydro-4H-pyrrolo[1,2-b]pyrazol-3-yl)quinolin-7-yl]phenyl}benzamide Trifluoroacetic Acid [Example 29] | ≤ 10000 |
| 4-[4-(2-Pyridin-2-yl-5,6-dihydro-4H-pyrrolo[1,2-b]pyrazol-3-yl]phenylamine Ditrifluoroacetic Acid [Example 10] | ≤ 100 |
| 5-[4-(2-pyridin-2-yl-5,6-dihydro-4H-pyrrolo[1,2-b]pyrazol-3-yl)-7-pyrimidin-5-yl-quinolin-7-yl]pyrimidin-2-ylamine Difluoroacetic Acid [Example 89] | ≤ 1000 |
| 7-(3,5-Dichlorophenyl)-4-(2-Pyridin-2-yl-5,6-dihydro-4H-pyrrolo[1,2-b]pyrazol-3-yl)quinoline Trifluoroacetic Acid [Example 31] | ≤ 1000 |
| 7-(3-Nitrophenyl)-4-(2-pyridin-2-yl-5,6-dihydro-4H-pyrrolo[1,2-b]pyrazol-3-yl)quinoline Trifluoroacetic Acid [Example 49] | ≤ 100 |
| 7-(4-Benzo[b]thiophen-3-yl-phenyl)-4-(2-pyridin-2-yl-5,6-dihydro-4H-pyrrolo[1,2-b]pyrazol-3-yl)-quinoline Trifluoroacetic Acid [Example 54] | ≤ 1000 |
| 7-(4-Methyl-3-nitro-phenyl)-4-(2-pyridin-2-yl-5,6-dihydro-4H-pyrrolo[1,2-b]pyrazol-3-yl)-quinoline Trifluoroacetic Acid [Example 52] | ≤ 100 |
| CC(C)(C)SCCNC(=O)c1ccc(-c2ccc3c(-c4c(-c5ccccn5)nn5c4CCC5)ccnc3c2)cc1 (racemic) [Example 127, (rac) N-(2-tert-Butylsulfanyl-ethyl)-4-[4-(2-pyridin-2-yl-5,6-dihydro-4H-pyrrolo[1,2-b]pyrazol-3-yl)-quinolin-7-yl]-benzamide] | ≤ 1000 |
| O=C(NC1CCS(=O)(=O)C1)c1ccc(-c2ccc3c(-c4c(-c5ccccn5)nn5c4CCC5)ccnc3c2)cc1 (racemic) [Example 129, (rac)-N-(1,1-Dioxo-tetrahydro-1λ^6-thiophen-3-yl)-4-[4-(2-pyridin-2-yl-5,6-dihydro-4H-pyrrolo[1,2-b]pyrazol-3-yl)-quinolin-7-yl]-benzamide] | ≤ 100 |
| Cc1csc(-c2ccc3c(-c4c(-c5ccccn5)nn5c4CCC5)ccnc3c2)c1 [Example 2, 7-(4-methylthiophen-2-yl)-4-(2-pyridin-2-yl-5,6-dihydro-4H-pyrrolo[1,2-b]pyrazol-3-yl)quinoline Trifluoroacetic Acid] | ≤ 100 |
| CC(=O)Nc1ccc(-c2ccc3c(-c4c(-c5ccccn5)nn5c4CCC5)ccnc3c2)cc1 [Example 3] | ≤ 100 |
| c1ccc(-c2ccc3c(-c4c(-c5ccccn5)nn5c4CCC5)ccnc3c2)cc1 [Example 4, 7-Phenyl-4-(2-pyridin-2-yl-5,6-dihydro-4H-pyrrolo[1,2-b]pyrazol-3-yl)quinoline Trifluoroacetic Acid] | ≤ 100 |
| Oc1ccccc1-c1ccc2c(-c3c(-c4ccccn4)nn4c3CCC4)ccnc2c1 [Example 5] | ≤ 1000 |
| Oc1cccc(-c2ccc3c(-c4c(-c5ccccn5)nn5c4CCC5)ccnc3c2)c1 [Example 6, 3-[4-(2-Pyridin-2-yl-5,6-dihydro-4H-pyrrolo[1,2-b]pyrazol-3-yl)quinolin-7-yl]phenol Trifluoroacetic Acid] | ≤ 100 |
| Oc1ccc(-c2ccc3c(-c4c(-c5ccccn5)nn5c4CCC5)ccnc3c2)cc1 [Example 7, 4-[4-(2-Pyridin-2-yl-5,6-dihydro-4H-pyrrolo[1,2-b]pyrazol-3-yl)quinolin-7-yl]phenol Trifluoroacetic Acid] | ≤ 100 |
| Nc1ccccc1-c1ccc2c(-c3c(-c4ccccn4)nn4c3CCC4)ccnc2c1 [Example 8, 2-[4-(2-Pyridin-2-yl-5,6-dihydro-4H-pyrrolo[1,2-b]pyrazol-3-yl)quinolin-7-yl]phenylamine Ditrifluoroacetic Acid] | ≤ 1000 |

| Molecule | IC50 [nM] |
| --- | --- |
| Nc1cccc(-c2ccc3c(-c4c(-c5ccccn5)nn5c4CCC5)ccnc3c2)c1 [Example 9] | ≤ 100 |
| Clc1cccc(-c2ccc3c(-c4c(-c5ccccn5)nn5c4CCC5)ccnc3c2)c1 [Example 11, 7-(3-Chlorophenyl)-4-(2-Pyridin-2-yl-5,6-dihydro-4H-pyrrolo[1,2-b]pyrazol-3-yl)quinoline Trifluoroacetic Acid] | ≤ 100 |
| Clc1ccc(-c2ccc3c(-c4c(-c5ccccn5)nn5c4CCC5)ccnc3c2)cc1 [Example 12, 7-(4-Chlorophenyl)-4-(2-pyridin-2-yl-5,6-dihydro-4H-pyrrolo[1,2-b]pyrazol-3-yl)quinoline Trifluoroacetic Acid] | ≤ 100 |
| O=[N+]([O-])c1ccc(-c2ccc3c(-c4c(-c5ccccn5)nn5c4CCC5)ccnc3c2)cc1 [Example 14, 7-(4-Nitrophenyl)-4-(2-pyridin-2-yl-5,6-dihydro-4H-pyrrolo[1,2-b]pyrazol-3-yl)quinoline Trifluoroacetic Acid] | ≤ 100 |
| CS(=O)(=O)Nc1cccc(-c2ccc3c(-c4c(-c5ccccn5)nn5c4CCC5)ccnc3c2)c1 [Example 15, N-{3-[4-(2-Pyridin-2-yl-5,6-dihydro-4H-pyrrolo[1,2-b]pyrazol-3-yl)-quinolin-7-yl]-phenyl}methanesulfomamide Trifluoroacetic Acid] | ≤ 100 |
| CS(=O)(=O)Nc1ccc(-c2ccc3c(-c4c(-c5ccccn5)nn5c4CCC5)ccnc3c2)cc1 [Example 16, N-{4-[4-(2-Pyridin-2-yl-5,6-dihydro-4H-pyrrolo[1,2-b]pyrazol-3-yl)quinolin-7-yl]phenyl}methanesulfonamide Trifluoroacetic Acid] | ≤ 100 |
| CCOc1ccccc1-c1ccc2c(-c3c(-c4ccccn4)nn4c3CCC4)ccnc2c1 [Example 17, 7-(2-Ethoxyphenyl)-4-(2-pyridin-2-yl-5,6-dihydro-4H-pyrrolo[1,2-b]pyrazol-3-yl)quinoline Trifluoroacetic Acid] | ≤ 10000 |
| CCOc1cccc(-c2ccc3c(-c4c(-c5ccccn5)nn5c4CCC5)ccnc3c2)c1 [Example 18, 7-(3-Ethoxyphenyl)-4-(2-pyridin-2-yl-5,6-dihydro-4H-pyrrolo[1,2-b]pyrazol-3-yl)quinoline Trifluoroacetic Acid] | ≤ 100 |
| CCOc1ccc(-c2ccc3c(-c4c(-c5ccccn5)nn5c4CCC5)ccnc3c2)cc1 [Example 19, 7-(4-Ethoxyphenyl)-4-(2-pyridin-2-yl-5,6-dihydro-4H-pyrrolo[1,2-b]pyrazol-3-yl)quinoline Trifluoroacetic Acid] | ≤ 100 |
| COc1ccc(-c2ccc3c(-c4c(-c5ccccn5)nn5c4CCC5)ccnc3c2)cc1 [Example 20, 7-(4-Methoxyphenyl)-4-(2-pyridin-2-yl-5,6-dihydro-4H-pyrrolo[1,2-b]pyrazol-3-yl)quinoline Trifluoroacetic Acid] | ≤ 100 |
| Cc1cc(-c2ccc3c(-c4c(-c5ccccn5)nn5c4CCC5)ccnc3c2)ccc1F [Example 21, 7-(4-Fluoro-3-methylphenyl)-4-(2-pyridin-2-yl-5,5-dihydro-4H-pyrrolo[1,2-b]pyrazol-3-yl)quinoline Trifluoroacetic Acid] | ≤ 1000 |
| Cc1cc(F)ccc1-c1ccc2c(-c3c(-c4ccccn4)nn4c3CCC4)ccnc2c1 [Example 22, 7-(4-Fluoro-2-methylphenyl)-4-(2-pyridin-2-yl-5,6-dihydro-4H-pyrrolo[1,2-b]pyrazol-3-yl)quinoline Trifluoroacetic Acid] | ≤ 1000 |
| Brc1ccc(-c2ccc3c(-c4c(-c5ccccn5)nn5c4CCC5)ccnc3c2)cc1 [Example 23, 7-(4-Bromophenyl)-4-(2-pyridin-2-yl-5,6-dihydro-4H-pyrrolo[1,2-b]pyrazol-3-yl)quinoline Trifluoroacetic Acid] | ≤ 100 |
| CCSc1ccc(-c2ccc3c(-c4c(-c5ccccn5)nn5c4CCC5)ccnc3c2)cc1 [Example 24, 7-(4-Ethylsulfanylphenyl)-4-(2-pyridin-2-yl-5,6-dihydro-4H-pyrrolo[1,2-b]pyrazol-3-yl)quinoline Trifluoroacetic Acid] | ≤ 1000 |
| CSc1ccc(-c2ccc3c(-c4c(-c5ccccn5)nn5c4CCC5)ccnc3c2)cc1 [Example 25, 7-(4-Methylsulfanylphenyl)-4-(2-pyridin-2-yl-5,6-dihydro-4H-pyrrolo[1,2-b]pyrazol-3-yl)quinoline Trifluoroacetic Acid] | ≤ 1000 |
| N#Cc1ccc(-c2ccc3c(-c4c(-c5ccccn5)nn5c4CCC5)ccnc3c2)cc1 [Example 26, 4-[4-(2-Pyridin-2-yl-5,6-dihydro-4H-pyrrolo[1,2-b]pyrazol-3-yl)quinolin-7-yl]benzonitrile Trifluroacetic Acid] | ≤ 100 |
